Source: patent publication US6680311B1, “Cryptophycin compounds” (Eli Lilly and Company, priority 1996, dated 2004)
≈ marks a conversion by molar mass, not a printed value. Counter-ions that a name gives are not always drawn. Like-named read-outs stand apart in the source and are kept apart here.

Columns and labels:
[1] = system: GC3 human colon carcinoma cells; experiment: GC3 human colon carcinoma screen (MTT); format: cell-based
Procedure: Selected wells of a 96 well plate were seeded with GC3 human colon carcinoma cells ([…] cells in 100 μl assay medium/well) twenty four hours prior to test compound addition. Cell free assay medium was added to other select wells of the 96 well plate.
The test compound was stored in an amber bottle prior to testing. Fresh dimethylsulfoxide stock solution (200 μg/ml) was prepared immediately prior to preparation of test sample dilutions in phosphate-buffered saline (PBS). A dilution of 1:20 dimethylsulfoxide solution in PBS was prepared such that the final concentration was 10 ug/ml. Serial 1:3 dilutions using PBS (0.5 ml previous sample of 1 ml PBS) were prepared.
A 10 ul sample of each dilution of test compound was added in triplicate to wells of GC3 plates. The plates were incubated for 72 hours at about 37° C. A 10 μl sample of stock 3-[4,5-[…]]-2,5-diphenyltetrazolium bromide salt (“MTT” 5 mg/ml in PBS) was added to each well. The plates were incubated for about an hour at 37°. The plates were centrifuged, media was decanted from the wells and 100 μl acid-isopropanol (0.04 N HCl in isopropanol) was added to each well. The plate was read within one hour using a test wavelength of 570 nm (SpectraMax reader).

SKVLB1 cells = experiment: Toxicity toward SKVLB1 cells (growth inhibition); format: cell-based; details: Homo sapiens, inhibition of proliferation, P-glycoprotein over expressing, vinblastine-resistant sub-line
A-10 cells [2] = experiment: Effects on taxol-stabilized microtubules; format: cell-based, rat
Procedure: (§1) A-10 cells are grown to near-confluency on glass coverslips in BME/10% FBS. Compounds in PBS are added to the indicated final concentrations and cells are incubated for an additional 24 hours. For the staining of microtubules and intermediate filaments, the cells are fixed with cold methanol and incubated with PBS containing 10% calf serum to block nonspecific binding sites. Cells are then incubated at 37° C. for 60 min. With either monoclonal anti-β-tubulin or with monoclonal anti-vimentin at dilutions recommended by the manufacturer. Bound primary antibodies are subsequently visualized by a 45 minute incubation with fluorescein-conjugated rabbit antimouse IgG. The coverslips are mounted on microscope slides and the fluorescence patterns are examined and photographed using a Zeiss Photomicroscope Ill equipped with epifluorescence optics for fluorescein. […] PBS containing 100 nM TRITC-phalloidin is then added and the mixture is allowed to incubate for 45 min. At 37° C. The cells are washed rapidly with PBS before the coverslips are mounted and immediately photographed as described above.
A-10 cells are treated for 3 hours with 0 or 10 μM taxol before the addition of PBS, 100 nM vinbiastine or 10 nM cryptophycin compound. After 24 hours, microtubule organization is examined by immunofluorescence as described above. […] Similarly, microtubules pretreated with taxol are observed with cryptophycin treatment.

[3] = Solubility in excipient / parenteral vehicles; format: physicochemical; details: Comparative solubility
[4] = system: Aortic smooth muscle (A-10) cells; experiment: Effects on the cytoskeleton (immunofluorescence); format: cell-based, rat; details: 2 μM, 24 hours
Procedure: as §1
After 24 hours, microtubules and vimentin intermediate filaments are visualized by indirect immunofluorescence and microfilaments are stained using TRITC-phalloidin. The morphological effects of each drug is examined. […]

A-10 cells [5] = experiment: Reversibility of microtubule depolymerization; format: cell-based, rat
Procedure: as §1
The cells are then washed and incubated in drug-free medium for periods of 1 hour or 24 hours. […] Cells are visualized for microtubule state after treatment with a cryptophycin compound of this invention at either 1 hour or 24 hours after removal of the cryptophycin compounds.

[6] = Homo sapiens, Colon carcinoma cell, 72 h, read-out: IC50 (GC3 assay)
[7] = in vitro cytotoxicity, Gc3 tumor cell model, read-out: Gc3 IC50
[8] = Homo sapiens, Colon carcinoma cell, 72 h, read-out: GC3 IC50

Compound `COc1ccc(C[C@H]2NC(=O)/C=C/C[C@@H]([C@H](C)[C@@H](Br)[C@H](O)c3ccccc3)OC(=O)[C@H](CC(C)C)OC(=O)[C@H](C)CNC2=O)cc1Cl` [CRYPTOPHYCIN-138, Cryptophycin-138] has an IC50 [1, 6] of 30.8 nM.
For `CC(=O)O[C@H]1C(=O)[C@@]2(C)[C@H]([C@H](OC(=O)c3ccccc3)[C@]3(O)C[C@H](OC(=O)[C@H](O)[C@@H](NC(=O)c4ccccc4)c4ccccc4)C(C)=C1C3(C)C)[C@]1(OC(C)=O)CO[C@@H]1C[C@@H]2O` [Taxol, taxol], the IC50 (SKVLB1 cells) was 8000 nM and the “microtubule organization in taxol-treated cells” value (A-10 cells [2]; 10 μM taxol, compared with control cells) was “extensively bundled”.
Compound “Cryptophycin 55 β-Alaninate Hydrochloride Salt [21′]” has an IC50 [1, 7] of 21 nM.
`COc1ccc(C[C@H]2NC(=O)/C=C/C[C@@H]([C@H](C)[C@@H](Cl)[C@H](O)c3ccccc3)OC(=O)[C@H](CC(C)C)OC(=O)[C@H](C)CNC2=O)cc1Cl` [CRYPTOPHYCIN-141, Cryptophycin-141] showed an IC50 [1, 6] of 795 nM.
With Cryptophycin 55 Acetate [3′] the IC50 [1, 7] was 83 nM.
In the case of `COc1ccc(C[C@H]2NC(=O)/C=C/C[C@@H]([C@H](C)[C@@H](O)[C@@H](Cl)c3ccccc3)OC(=O)[C@H](CC(C)C)OC(=O)C(C)(C)CNC2=O)cc1Cl` [Compound 1, cryptophycin 55], the IC50 ([1]; Homo sapiens, Colon carcinoma cell, in vitro cytotoxicity, 72 hours, MTT, read-out: GC3 IC50) is reported as 0.065 nM, the solubility ([3]; aqueous with cosolvent or surfactant or cyclodextrin, vehicle 1) is reported as < 1 µg/mL and the solubility ([3]; aqueous with cosolvent or surfactant or cyclodextrin, vehicle 2) is reported as 2.6 µg/mL (≈ 3.68 µM). The solubility ([3]; aqueous with cosolvent or surfactant or cyclodextrin, vehicle 3) was 311 µg/mL (≈ 441 µM), the solubility ([3]; aqueous with cosolvent or surfactant or cyclodextrin, vehicle 4) was 361 µg/mL (≈ 512 µM) and the solubility ([3]; pH 4, aqueous buffer, vehicle 5) was < 1 µg/mL.
In the case of `COc1ccc(C[C@H]2NC(=O)/C=C/C[C@@H]([C@H](C)[C@H](Cl)[C@H](O)c3ccccc3)OC(=O)[C@H](CC(C)C)OC(=O)[C@H](C)CNC2=O)cc1Cl` [CRYPTOPHYCIN-142], the IC50 [1, 6] is reported as 1.1 nM.
For `COc1ccc(C[C@H]2NC(=O)/C=C/C[C@@H]([C@H](C)[C@H](Br)[C@H](O)c3ccccc3)OC(=O)[C@H](CC(C)C)OC(=O)[C@H](C)CNC2=O)cc1Cl` [CRYPTOPHYCIN-145, Cryptophycin-145], the IC50 [1, 6] was 0.015 nM.
Compound `COc1ccc(C[C@H]2NC(=O)/C=C/C[C@@H]([C@H](C)[C@@H](O)[C@@H](Cl)c3ccccc3)OC(=O)[C@H](CC(C)C)OC(=O)C(C)(C)CNC2=O)cc1Cl` [1′, Cryptophycin 55] has an IC50 [1, 7] of 0.065 nM.
`COc1ccc(C[C@H]2NC(=O)/C=C/C[C@@H]([C@H](C)[C@@H](Cl)[C@@H](O)c3ccccc3)OC(=O)[C@H](CC(C)C)OC(=O)[C@H](C)CNC2=O)cc1Cl` [CRYPTOPHYCIN-140, Cryptophycin-140] gave an IC50 [1, 6] of 863 nM.
With `C=C1[C@@H](C)[C@H]2[C@H](Cc3ccccc3)NC(=O)[C@]23OC(=O)/C=C/[C@H](O)CCC[C@@H](C)C/C=C/[C@H]3[C@@H]1O` [Cytochalasin B, cytochalasin B] the effect on microfilaments ([4]; TRITC-phalloidin staining) was “complete depolymerization of microfilaments” and the “effect on distribution of microtubules or intermediate filaments” value ([4]; indirect immunofluorescence) was “did not affect”.
Compound `COc1ccc(CC2NC(=O)C=CCC(C(C)C(OC(=O)CCC(=O)O)C(Cl)c3ccccc3)OC(=O)C(CC(C)C)OC(=O)C(C)(C)CNC2=O)cc1Cl` (centres unmarked) [5′, Cryptophycin 55 Succinate] has an IC50 [1, 7] of 31 nM.
Compound `COc1ccc(C[C@H]2NC(=O)/C=C/C[C@@H]([C@H](C)[C@@H](OC(C)=O)[C@@H](Cl)c3ccccc3)OC(=O)[C@H](CC(C)C)OC(=O)C(C)(C)CNC2=O)cc1Cl` [Compound 3, Cryptophycin 55 Acetate] has an IC50 [1, 8] of 83 nM.
In the case of `COc1ccc(CC2NC(=O)C=CCC(C(C)C(OC(=O)CN)C(Cl)c3ccccc3)OC(=O)C(CC(C)C)OC(=O)C(C)(C)CNC2=O)cc1Cl` (centres unmarked) [19′, Cryptophycin 55 Glycinate Hydrochloride Salt], the IC50 [1, 7] is reported as 0.1 nM.
Work on “Cryptophycin 55 (D)-alaninate Hydrochloride Salt [30′]” yielded an IC50 [1, 7] of 30 nM.
In the case of `COc1ccc(CC2NC(=O)C=CCC(C(C)C(OC(=O)[C@@H](N)Cc3c[nH]cn3)C(Cl)c3ccccc3)OC(=O)C(CC(C)C)OC(=O)C(C)(C)CNC2=O)cc1Cl` (some centres unmarked) [15′, Cryptophycin 55 (L)-Histidinate Dihydrochloride Salt], the IC50 [1, 7] is reported as 60 nM.
For `COc1ccc(C[C@H]2NC(=O)/C=C/C[C@@H]([C@H](C)[C@@H](OC(=O)CCC(=O)O)[C@@H](Cl)c3ccccc3)OC(=O)[C@H](CC(C)C)OC(=O)C(C)(C)CNC2=O)cc1Cl` [Compound 4, Cryptophycin 55 Succinate], the IC50 [1, 8] was 31 nM.
With `CC[C@]1(O)C[C@@H]2CN(CCc3c([nH]c4ccccc34)[C@@](C(=O)OC)(c3cc4c(cc3OC)N(C)[C@H]3[C@@](O)(C(=O)OC)[C@H](OC(C)=O)[C@]5(CC)C=CCN6CC[C@]43[C@@H]65)C2)C1` [Vinblastine, vinblastine] the IC50 (SKVLB1 cells) was 4200 nM, the “microtubule depolymerization after taxol pretreatment” value (A-10 cells [2]; 100 nM vinblastine after 3 hours pretreatment with 10 μM taxol) was “prevented microtubule depolymerization” and the microtubule depolymerization (A-10 cells [2]; 100 nM, 24 hours, non-pretreated cells) was “complete depolymerization of microtubules”. The “microtubule repolymerization 1 hour after removal of drug” value (A-10 cells [5]; 100 nM for 24 hr, washed, drug-free medium 1 hour) was “significant levels of microtubules”, the “microtubule repolymerization 24 hours after removal of drug” value (A-10 cells [5]; 100 nM for 24 hr, washed, drug-free medium 24 hours) was “complete morphological recovery” and the microtubule depolymerization (A-10 cells [5]; 100 nM, 24 hr) was “complete microtubule depolymerization”.
Compound `COc1ccc(CC2NC(=O)C=CCC(C(C)C(OC(=O)[C@H](N)Cc3ccc(OC)c(Cl)c3)C(Cl)c3ccccc3)OC(=O)C(CC(C)C)OC(=O)C(C)(C)CNC2=O)cc1Cl` (some centres unmarked) [11′, Cryptophycin 55 3-(3-Chloro-4-methoxyphenyl)-(D)-alaninate Hydrochloride Salt] has an IC50 [1, 7] of 6.8 nM.
`COc1ccc(C[C@H]2NC(=O)/C=C/C[C@@H]([C@H](C)[C@@H](Br)C(=O)c3ccccc3)OC(=O)[C@H](CC(C)C)OC(=O)[C@H](C)CNC2=O)cc1Cl` [CRYPTOPHYCIN-139, Cryptophycin-139] gave an IC50 [1, 6] of 3.4 nM.
With `COc1ccc(CC2NC(=O)C=CCC(C(C)C(OC(=O)[C@@H](N)Cc3ccccc3)C(Cl)c3ccccc3)OC(=O)C(CC(C)C)OC(=O)C(C)(C)CNC2=O)cc1Cl` (some centres unmarked) [13′, Cryptophycin 55 (L)-Phenylalaninate Hydrochloride Salt] the IC50 [1, 7] was 7 nM.
Compound “Cryptophycin 55 γ-Aminobutyrate Hydrochloride Salt [25′]” has an IC50 [1, 7] of 230 nM.
`COc1ccc(CC2NC(=O)C=CCC(C(C)C(OC(=O)C3CCCN3)C(Cl)c3ccccc3)OC(=O)C(CC(C)C)OC(=O)C(C)(C)CNC2=O)cc1Cl` (centres unmarked) [17′, Cryptophycin 55 (L)-Prolinate Hydrochloride Salt] gave an IC50 [1, 7] of 3.6 nM.
`COc1ccc(C[C@H]2NC(=O)/C=C/C[C@@H]([C@H](C)[C@@H](OC(=O)Cc3ccccc3OP(=O)(O)O)[C@@H](Cl)c3ccccc3)OC(=O)[C@H](CC(C)C)OC(=O)C(C)(C)CNC2=O)cc1Cl` [Compound 6, Cryptophycin 55 (2′-Phosphatyl)phenylacetate di-Sodium Salt] gave an IC50 [1, 8] of 3.7 nM.
With “Cryptophycin 55 (2′-phosphatyl)phenylacetate di-sodium Salt [7′]” the IC50 [1, 7] was 3.7 nM.
Work on `COc1ccc(C[C@H]2NC(=O)/C=C/C[C@@H]([C@H](C)[C@H](Cl)[C@@H](O)c3ccccc3)OC(=O)[C@H](CC(C)C)OC(=O)[C@H](C)CNC2=O)cc1Cl` [CRYPTOPHYCIN-143] yielded an IC50 [1, 6] of 850 nM.
